Experimental data: patent US10112899B2 (ViiV HEALTHCARE UK LIMITED, priority 2014, dated 2018)

Test system: HIV in the HTLV-1 transformed cell line MT-4
Assay: organism not typed
Type: cell-based
Settings: MT-4 cells, luciferase/cell titer glo readout after 96 hours, 10 point dose response

SMILES	IC50 (MT4, 96 h) [nM]	IC50 [nM]
Cc1ccc(-c2c(C)c3c(c(C)c2[C@H](OC(C)(C)C)C(=O)O)CN(C(=O)N2CCC[C@H]2C)C3)cc1 [Example 292, (S)-2-(tert-butoxy)-2-(4,7-dimethyl-2-((R)-2-methylpyrrolidine-1-carbonyl)-6-(p-tolyl)isoindolin-5-yl)acetic acid]	5	
Cc1ccc(-c2c(C)c3c(c(C)c2[C@H](OC(C)(C)C)C(=O)O)CN(C(=O)N2CCCC[C@@H]2C)C3)cc1 [Example 293, (S)-2-(tert-butoxy)-2-(4,7-dimethyl-2-((S)-2-methylpiperidine-1-carbonyl)-6-(p-tolyl)isoindolin-5-yl)acetic acid]	4	
Cc1ccc(-c2c(C)c3c(c(C)c2[C@H](OC(C)(C)C)C(=O)O)CN(C(=O)N2CC[C@H](F)C2)C3)cc1 [Example 294, (S)-2-(tert-butoxy)-2-(2-((S)-3-fluoropyrrolidine-1-carbonyl)-4,7-dimethyl-6-(p-tolyl)isoindolin-5-yl)acetic acid]	4	
Cc1c2c(c(C)c([C@H](OC(C)(C)C)C(=O)O)c1-c1ccc3c4c(ccnc14)CCO3)CN(C(=O)c1cccc(F)c1)C2 [Example 299, (2S)-2-(tert-butoxy)-2-(6-(2,3-dihydropyrano[4,3,2-de]quinolin-7-yl)-2-(3-fluorobenzoyl)-4,7-dimethylisoindolin-5-yl)acetic acid]	14	
Cc1c2c(c(C)c([C@H](OC(C)(C)C)C(=O)O)c1C1=CCC(C)(C)CC1)CN(C(=O)c1cccc(F)c1)C2 [Example 302, (S)-2-(tert-butoxy)-2-(6-(4,4-dimethylcyclohex-1-en-1-yl)-2-(3-fluorobenzoyl)-4,7-dimethylisoindolin-5-yl)acetic acid]	4	
Cc1c(-c2c(C)c3c(c(C)c2[C@H](OC(C)(C)C)C(=O)O)CN(C(=O)c2cccc(F)c2)C3)ccc2c1NCCO2 [Example 303, (2S)-2-(tert-butoxy)-2-(2-(3-fluorobenzoyl)-4,7-dimethyl-6-(5-methyl-3,4-dihydro-2H-benzo[b][1,4]oxazin-6-yl)isoindolin-5-yl)acetic acid]		5
Cc1c2c(c(C)c([C@H](OC(C)(C)C)C(=O)O)c1-c1ccc3c(c1)CCCO3)CN(C(=O)c1cccc(F)c1)C2 [Example 304, (S)-2-(tert-butoxy)-2-(6-(chroman-6-yl)-2-(3-fluorobenzoyl)-4,7-dimethylisoindolin-5-yl)acetic acid]	4	
Cc1c(-c2c(C)c3c(c(C)c2[C@H](OC(C)(C)C)C(=O)O)CN(C(=O)c2cccc(F)c2)C3)ccc2c1CCCO2 [Example 305, (2S)-2-(tert-butoxy)-2-(2-(3-fluorobenzoyl)-4,7-dimethyl-6-(5-methylchroman-6-yl)isoindolin-5-yl)acetic acid]	2	
Cc1c2c(c(C)c([C@H](OC(C)(C)C)C(=O)O)c1C1=CCC(C)(C)CC1)CN(C(=O)c1cccc3c1OCO3)C2 [Example 307, (S)-2-(2-(benzo[d][1,3]dioxole-4-carbonyl)-6-(4,4-dimethylcyclohex-1-en-1-yl)-4,7-dimethylisoindolin-5-yl)-2-(tert-butoxy)acetic acid]	4	
Cc1c2c(c(C)c([C@H](OC(C)(C)C)C(=O)O)c1-c1ccc(Cl)cc1)CN(C(=O)c1cccc3c1OCO3)C2 [Example 308, (S)-2-(2-(benzo[d][1,3]dioxole-4-carbonyl)-6-(4-chlorophenyl)-4,7-dimethylisoindolin-5-yl)-2-(tert-butoxy)acetic acid]	4	
Cc1ccc(-c2c(C)c3c(c(C)c2[C@H](OC(C)(C)C)C(=O)O)CN(C(=O)c2cccc4c2OCO4)C3)c(Cl)c1 [Example 309, (2S)-2-(2-(benzo[d][1,3]dioxole-4-carbonyl)-6-(2-chloro-4-methylphenyl)-4,7-dimethylisoindolin-5-yl)-2-(tert-butoxy)acetic acid]	4	
Cc1c(-c2c(C)c3c(c(C)c2[C@H](OC(C)(C)C)C(=O)O)CN(C(=O)c2cccc4c2OCO4)C3)cc(F)c2c1NCCO2 [Example 310, (2S)-2-(2-(benzo[d][1,3]dioxole-4-carbonyl)-6-(8-fluoro-5-methyl-3,4-dihydro-2H-benzo[b][1,4]oxazin-6-yl)-4,7-dimethylisoindolin-5-yl)-2-(tert-butoxy)acetic acid]	18	
Cc1c(-c2c(C)c3c(c(C)c2[C@H](OC(C)(C)C)C(=O)O)CN(C(=O)c2cccc(F)c2)C3)ccc2c1NCCO2 [Example 311, (2S)-2-(tert-butoxy)-2-(2-(3-fluorobenzoyl)-4,7-dimethyl-6-(5-methyl-3,4-dihydro-2H-benzo[b][1,4]oxazin-6-yl)isoindolin-5-yl)acetic acid]		15
Cc1c2c(c(C)c([C@H](OC(C)(C)C)C(=O)O)c1-c1ccc3c(c1)CCCO3)CN(C(=O)N1CCC(F)(F)C1)C2 [Example 313, (S)-2-(tert-butoxy)-2-(6-(chroman-6-yl)-2-(3,3-difluoropyrrolidine-1-carbonyl)-4,7-dimethylisoindolin-5-yl)acetic acid]	4	
Cc1ccc(-c2c(C)c3c(c(C)c2[C@H](OC(C)(C)C)C(=O)O)CN(C(=O)N2CCC(F)(F)C2)C3)c(Cl)c1 [Example 314, (2S)-2-(tert-butoxy)-2-(6-(2-chloro-4-methylphenyl)-2-(3,3-difluoropyrrolidine-1-carbonyl)-4,7-dimethylisoindolin-5-yl)acetic acid]	4	
Cc1c(-c2c(C)c3c(c(C)c2[C@H](OC(C)(C)C)C(=O)O)CN(C(=O)N2CCC(F)(F)C2)C3)cc(F)c2c1NCCO2 [Example 315, (2S)-2-(tert-butoxy)-2-(2-(3,3-difluoropyrrolidine-1-carbonyl)-6-(8-fluoro-5-methyl-3,4-dihydro-2H-benzo[b][1,4]oxazin-6-yl)-4,7-dimethylisoindolin-5-yl) acetic acid]	15	
Cc1ccc(-c2c(C)c3c(c(C)c2[C@H](OC(C)(C)C)C(=O)O)CN(C(=O)N2CCCCC2)C3)c(Cl)c1 [Example 316, (2S)-2-(tert-butoxy)-2-(6-(2-chloro-4-methylphenyl)-4,7-dimethyl-2-(piperidine-1-carbonyl)isoindolin-5-yl)acetic acid]		41
Cc1c2c(c(C)c([C@H](OC(C)(C)C)C(=O)O)c1-c1ccc3c(c1)CCCO3)CN(C(=O)N1CCCCC1)C2 [Example 317, (S)-2-(tert-butoxy)-2-(6-(chroman-6-yl)-4,7-dimethyl-2-(piperidine-1-carbonyl)isoindolin-5-yl)acetic acid]	3	
Cc1c(-c2c(C)c3c(c(C)c2[C@H](OC(C)(C)C)C(=O)O)CN(C(=O)N2CCCCC2)C3)cc(F)c2c1NCCO2 [Example 318, (2S)-2-(tert-butoxy)-2-(6-(8-fluoro-5-methyl-3,4-dihydro-2H-benzo[b][1,4]oxazin-6-yl)-4,7-dimethyl-2-(piperidine-1-carbonyl)isoindolin-5-yl)acetic acid]	5	
Cc1c(-c2c(C)c3c(c(C)c2[C@H](OC(C)(C)C)C(=O)O)CN(C(=O)N2CCCCC2)C3)ccc2c1NCCO2 [Example 319, (2S)-2-(tert-butoxy)-2-(4,7-dimethyl-6-(5-methyl-3,4-dihydro-2H-benzo[b][1,4]oxazin-6-yl)-2-(piperidine-1-carbonyl)isoindolin-5-yl)acetic acid]	4	
